In patent publication US20220168313A1, “HETEROCYCLIC COMPOUNDS AND USES THEREOF” (Nuvation Bio Inc., priority 2019, published 2022):

Tests used:
WEE1 kinase enzyme = biological target: T1, WEE1 kinase enzyme (Homo sapiens, UniProt P30291); assay: WEE1 IC50 determination, LanthaScreen Terbium Labeled TR-FRET kinase assay; assay type: biochemical; details: WEE1 Enzyme 1 nM, ATP 10 μM, fluorescent-PolyGT substrate 200 nM, 1 h
T1 construct: purchased Invitrogen, Life Technologies PR7373A
Procedure: IC50 values of the compounds against WEE1 kinase enzyme were determined by LanthaScreen™ Terbium Labeled TR-FRET assay. Kinase assays were performed in 1× kinase buffer (#PV6135, Invitrogen, Life Technologies, Grand Island, N.Y.) where total reaction volume was 10 μL in low-volume 384-well plates (#4511, Corning). Serially diluted compounds (3-fold) were incubated with WEE1 Enzyme (1 nM) (#PR7373A, Invitrogen, Life Technologies, Grand Island, N.Y.) for 10 min; a mixture of ATP (10 μM) (#A1852, Sigma, St. Louis, Mo.) and fluorescent-PolyGT substrate (200 nM) (#PV3610, Invitrogen, Life Technologies, Grand Island, N.Y.) was added and incubated in dark at room temperature for 1 h. After 1 h, 10 μL stop solution containing terbium labeled antibody (4 nM) (#PV3529, Invitrogen, Life Technologies, Grand Island, N.Y.) and EDTA (#E5134, Sigma, St. Louis, Mo.) (20 mM) in TR-FRET dilution buffer (#PV3574, Invitrogen, Life Technologies, Grand Island, N.Y.) were added. Readings were taken in a Synergy Neo plate reader (BioTek, Winooski, Vt.) at single excitation of 340 nm and dual emission at 495 nm and 520 nm respectively.
The % activity of test samples was calculated as (Sample−Min)*100/(Max−Min). [Max: DMSO control, complete reaction with enzyme & DMSO and Min: No enzyme & DMSO]. Percent inhibition (100-% activity) was fitted to the “four-parameter logistic model” in XLfit for determination of IC50 values.

A427 cells = assay: Cytotoxicity assay in A427 cell line (resazurin, 72 hr); assay type: cell-based; details: Homo sapiens, A-427; A427 lung epithelial cell line, 72 hr incubation, inhibition of proliferation
Procedure: A427 (HTB-53; ATCC), a lung epithelial cell line, was seeded in medium (MEM, 41090101; Gibco) at a cell count of 1500 cells per 100 μL per well in a 96 well edge plate (167425; ThermoFisher). Cells were allowed to grow at 37° C. for 24 hr in 5% CO2 environment (culture conditions) in a Nuaire incubator (humidified). Serially diluted test compounds (100 μL) within the desired testing concentration ranges were added to the culture plate and the cells further incubated in culture conditions for 72 hr. The experiment was terminated at the designated incubation time by replacing the medium with 100 μL of 1 mM of resazurin (R7017; Sigma) prepared in culture medium, and the plates were further incubated in culture conditions for 4-6 hr. Fluorescence was recorded using a multimodal plate reader (Biotek Synergy Neo) at an excitation wavelength of 535 nm and emission wavelength of 590 nm to obtain relative fluorescence units. Data were analysed as follows: the background fluorescence (blank containing only medium) value was subtracted from each reading and normalized with the vehicle control (DMSO treated cells) to obtain percent survival/proliferation. […] Potency of compounds in other cell lines (such as A549, As-Pc-1, Panc-10.05, MDA-MB-231, A172, U-87MG) may be determined in an analogous manner.

T1 sequence (P30291 whole entry): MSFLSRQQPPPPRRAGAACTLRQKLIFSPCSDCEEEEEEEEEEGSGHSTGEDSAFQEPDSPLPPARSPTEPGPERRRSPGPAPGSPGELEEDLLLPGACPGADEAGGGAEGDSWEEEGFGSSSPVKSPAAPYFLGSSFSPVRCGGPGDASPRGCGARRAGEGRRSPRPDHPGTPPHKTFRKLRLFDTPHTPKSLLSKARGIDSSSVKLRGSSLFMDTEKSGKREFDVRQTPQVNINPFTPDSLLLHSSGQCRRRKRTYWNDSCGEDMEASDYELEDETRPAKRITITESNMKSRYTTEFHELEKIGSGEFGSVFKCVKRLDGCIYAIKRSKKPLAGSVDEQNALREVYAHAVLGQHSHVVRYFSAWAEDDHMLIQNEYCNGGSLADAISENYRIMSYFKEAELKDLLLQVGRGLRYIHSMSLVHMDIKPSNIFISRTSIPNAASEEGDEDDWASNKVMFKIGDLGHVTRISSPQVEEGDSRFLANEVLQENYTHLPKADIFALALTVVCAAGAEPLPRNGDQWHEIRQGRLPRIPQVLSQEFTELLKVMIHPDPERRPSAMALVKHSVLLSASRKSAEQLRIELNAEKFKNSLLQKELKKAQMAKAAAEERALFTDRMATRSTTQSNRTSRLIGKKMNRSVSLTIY

IC50 (WEE1 kinase enzyme) [nM] | SMILES | IC50 (A427 cells) [nM]
125 | CN(C)CC(=O)N1CCc2cc(Nc3ncc4c(n3)OCN(c3c(Cl)cccc3Cl)C4=O)ccc2C1(C)C [1.48, 3-(2,6-dichlorophenyl)-7-((2-(dimethylglycyl)-1,1-dimethyl-1,2,3,4-tetrahydroisoquinolin-6-yl)amino)-2,3-dihydro-4H-pyrimido[5,4-e][1,3]oxazin-4-one] | 
145 | CN(C)CC(=O)N1CCc2cc(Nc3ncc4c(n3)OCN(c3c(Cl)cccc3Cl)C4=O)ccc2C1 [1.37, 3-(2,6-dichlorophenyl)-7-(2-(2-(dimethylamino)acetyl)-1,2,3,4-tetrahydroisoquinolin-6-ylamino)-2H-pyrimido[5,4-e][1,3]oxazin-4 (3H)-one] | 

Second part, the compound before the results:

SMILES | IC50 (WEE1 kinase enzyme) [nM] | IC50 (A427 cells) [nM]
CC(C)N1CCc2ccc(Nc3ncc4c(n3)OCN(c3c(Cl)cccc3Cl)C4=O)cc2C1 [Compound No. 1.43, 3-(2,6-dichlorophenyl)-7-((2-isopropyl-1,2,3,4-tetrahydroisoquinolin-7-yl)amino)-2,3-dihydro-4H-pyrimido[5,4-e][1,3]oxazin-4-one] | 21 | 5500
CC(C)N1CCc2cc(Nc3ncc4c(n3)OCN(c3c(Cl)cccc3Cl)C4=O)ccc2C1 [Compound No. 1.40, 3-(2,6-dichlorophenyl)-7-((2-isopropyl-1,2,3,4-tetrahydroisoquinolin-6-yl)amino)-2,3-dihydro-4H-pyrimido[5,4-e][1,3]oxazin-4-one] | 206 | 
CN(C)CC(=O)N1CCc2ccc(Nc3ncc4c(n3)OCN(c3c(Cl)cccc3Cl)C4=O)cc2C1 [Compound No. 1.44, 3-(2,6-dichlorophenyl)-7-((2-(dimethylglycyl)-1,2,3,4-tetrahydroisoquinolin-7-yl)amino)-2,3-dihydro-4H-pyrimido[5,4-e][1,3]oxazin-4-one] | 225 | 
